{
  "source": "patent US20260240827A1",
  "about": "“PALATABLE LIQUID SOLUTION CONTAINING HIGH CONCENTRATION OF MIGLUSTAT” (THERANEXUS, priority 2022, published 2026)",
  "key": {"[1]": {"assay": "Drug excipient compatibility: physical description after storage", "assay_type": "physicochemical", "conditions": "up to 4 weeks 40° C./75% RH and 25° C./60% RH, 60° C. 1 week", "method": "This study was conducted to assess the compatibility of miglustat with excipient candidates that can be used in the liquid Miglustat product. Each different excipient was manually stirred with miglustat and stored into amber glass vials.\nVials were stored in climatic chambers with different environmental conditions: 25° C./60% RH, 40° C./75% RH and 60° C. for up to 4 weeks, in closed containers. (RH=relative humidity)\nAfter the defined storage time, samples were exited from the climatic chambers. Operators observed the solution and described the appearance of the solution by visual inspection."}, "[2]": {"conditions": "ambient temperature; cited from earlier work"}},
  "data": [
    {"smiles": "CC1=CC(=O)NS(=O)(=O)O1", "note": "[Acesulfame Potassium]", "values": [
      {"measurement": "Compatibility of excipient with Miglustat in binary mixture (DEC study conclusion)", "setting": "[1]", "result": "not compatible"}
    ]},
    {"smiles": "Cl", "note": "[Hydrochloric acid]", "values": [
      {"measurement": "Compatibility of excipient with Miglustat in binary mixture (DEC study conclusion)", "setting": "[1]", "result": "not compatible"}
    ]},
    {"smiles": "CCCCN1C[C@H](O)[C@@H](O)[C@H](O)[C@H]1CO", "note": "[Miglustat, 1,5-(butylimino)-1,5-dideoxy-D-glucitol]", "values": [
      {"measurement": "Solubility in water", "setting": "[2]", "result": "> 1000", "unit": "mg/mL"}
    ]},
    {"smiles": "O=C([O-])c1ccccc1.[Na+]", "note": "[Sodium Benzoate, sodium salt of benzoic acid]", "values": [
      {"measurement": "Compatibility of excipient with Miglustat in binary mixture (DEC study conclusion)", "setting": "[1]", "result": "compatible"}
    ]},
    {"smiles": "O=C(O)C(O)C(O)C(=O)O", "note": "(stereo not drawn) [Tartaric acid, 2,3-Dihydroxybutanedioic acid]", "values": [
      {"measurement": "Compatibility of excipient with Miglustat in binary mixture (DEC study conclusion)", "setting": "[1]", "result": "compatible"}
    ]},
    {"smiles": "O=C1O[C@H]([C@@H](O)CO)C(O)=C1O", "note": "[ascorbic acid]", "values": [
      {"measurement": "Compatibility of excipient with Miglustat in binary mixture (DEC study conclusion)", "setting": "[1]", "result": "not compatible"}
    ]}
  ]
}
